From the NIST ThermoML archive (doi:10.1016/j.jct.2012.11.010)
± gives the expanded uncertainty stated by the source.

Settings: Liquid; for viscosity: 101.33 kPa, Falling or rolling sphere viscometry; for mass density: Vibrating tube method

CCCC[N+]1(C)CCCC1.FC(F)(F)C(F)(F)[P-](F)(F)(F)(C(F)(F)C(F)(F)F)C(F)(F)C(F)(F)F
Settings | viscosity [mPa·s]
293.15 K | 333.79 ± 22
303.15 K | 179.86 ± 8.9
313.15 K | 106 ± 4
323.15 K | 68.08 ± 2.1
333.15 K | 45.37 ± 1.4
343.15 K | 31.9 ± 0.99
353.15 K | 23.42 ± 0.72
363.15 K | 17.58 ± 0.54
373.15 K | 13.71 ± 0.42

Settings | mass density [kg/m3]
293.17 K, 5000 kPa | 1606.7 ± 16
293.17 K, 10000 kPa | 1610.2 ± 16
293.17 K, 15000 kPa | 1614.1 ± 16
293.17 K, 20000 kPa | 1618 ± 16
293.17 K, 25000 kPa | 1621.7 ± 16
293.18 K, 2500 kPa | 1604.9 ± 16
293.19 K, 100 kPa | 1603.7 ± 16
293.19 K, 500 kPa | 1604 ± 16
293.19 K, 1000 kPa | 1603.9 ± 16
303.18 K, 100 kPa | 1592.8 ± 16
303.19 K, 1000 kPa | 1593.1 ± 16
303.2 K, 500 kPa | 1593.1 ± 16
303.25 K, 10000 kPa | 1599.5 ± 16
303.25 K, 20000 kPa | 1607.6 ± 16
303.25 K, 25000 kPa | 1611.4 ± 16
303.26 K, 2500 kPa | 1593.9 ± 16
303.26 K, 5000 kPa | 1595.8 ± 16
303.26 K, 15000 kPa | 1603.6 ± 16
313.19 K, 10000 kPa | 1589.1 ± 16
313.2 K, 100 kPa | 1581.9 ± 16
313.2 K, 500 kPa | 1582.3 ± 16
313.2 K, 1000 kPa | 1582.3 ± 16
313.2 K, 5000 kPa | 1585.3 ± 16
313.2 K, 20000 kPa | 1597.4 ± 16
313.21 K, 2500 kPa | 1583.3 ± 16
313.21 K, 15000 kPa | 1593.3 ± 16
313.21 K, 25000 kPa | 1601.4 ± 16
323.14 K, 100 kPa | 1571 ± 16
323.14 K, 500 kPa | 1571.4 ± 16
323.14 K, 2500 kPa | 1572.5 ± 16
323.14 K, 10000 kPa | 1578.5 ± 16
323.14 K, 15000 kPa | 1582.9 ± 16
323.14 K, 20000 kPa | 1587.2 ± 16
323.14 K, 25000 kPa | 1591.3 ± 16
323.15 K, 1000 kPa | 1571.5 ± 16
323.15 K, 5000 kPa | 1574.6 ± 16
333.17 K, 100 kPa | 1560.4 ± 16
333.17 K, 500 kPa | 1560.8 ± 16
333.17 K, 1000 kPa | 1560.9 ± 16
333.17 K, 5000 kPa | 1564.2 ± 16
333.18 K, 2500 kPa | 1562 ± 16
333.18 K, 10000 kPa | 1568.2 ± 16
333.18 K, 15000 kPa | 1572.7 ± 16
333.18 K, 20000 kPa | 1577.2 ± 16
333.18 K, 25000 kPa | 1581.4 ± 16
343.16 K, 100 kPa | 1549.9 ± 16
343.17 K, 500 kPa | 1550.4 ± 16
343.18 K, 1000 kPa | 1550.5 ± 16
343.19 K, 2500 kPa | 1551.6 ± 16
343.2 K, 5000 kPa | 1553.9 ± 16
343.2 K, 10000 kPa | 1558.1 ± 16
343.2 K, 15000 kPa | 1562.8 ± 16
343.2 K, 20000 kPa | 1567.4 ± 16
343.21 K, 25000 kPa | 1571.7 ± 16
353.17 K, 100 kPa | 1539.5 ± 15
353.17 K, 500 kPa | 1540.1 ± 15
353.17 K, 5000 kPa | 1543.8 ± 15
353.18 K, 1000 kPa | 1540.3 ± 15
353.18 K, 2500 kPa | 1541.4 ± 15
353.18 K, 15000 kPa | 1553 ± 16
353.19 K, 10000 kPa | 1548.2 ± 16
353.19 K, 20000 kPa | 1557.7 ± 16
353.19 K, 25000 kPa | 1562.2 ± 16

CCCCCCCCCCCCCC[P+](CCCCCC)(CCCCCC)CCCCCC.FC(F)(F)C(F)(F)[P-](F)(F)(F)(C(F)(F)C(F)(F)F)C(F)(F)C(F)(F)F
Settings | viscosity [mPa·s]
293.15 K | 470.83 ± 36
303.15 K | 259.01 ± 15
313.15 K | 155.29 ± 7.2
323.15 K | 94.33 ± 3.4
333.15 K | 65 ± 2
343.15 K | 42.67 ± 1.3
353.15 K | 30.35 ± 0.94
363.15 K | 22.81 ± 0.71
373.15 K | 17.53 ± 0.54

Settings | mass density [kg/m3]
293.2 K, 100 kPa | 1185.7 ± 12
293.21 K, 500 kPa | 1185.9 ± 12
293.22 K, 1000 kPa | 1185.9 ± 12
293.22 K, 2500 kPa | 1186.7 ± 12
293.22 K, 5000 kPa | 1188.3 ± 12
293.22 K, 10000 kPa | 1191.3 ± 12
293.22 K, 25000 kPa | 1201.2 ± 12
293.23 K, 15000 kPa | 1194.7 ± 12
293.23 K, 20000 kPa | 1198 ± 12
303.19 K, 100 kPa | 1177.4 ± 12
303.19 K, 500 kPa | 1177.7 ± 12
303.19 K, 1000 kPa | 1177.7 ± 12
303.21 K, 2500 kPa | 1178.5 ± 12
303.22 K, 5000 kPa | 1180.1 ± 12
303.22 K, 10000 kPa | 1183.3 ± 12
303.23 K, 15000 kPa | 1186.8 ± 12
303.23 K, 20000 kPa | 1190.2 ± 12
303.25 K, 25000 kPa | 1193.5 ± 12
313.15 K, 100 kPa | 1169.1 ± 12
313.17 K, 500 kPa | 1169.4 ± 12
313.17 K, 1000 kPa | 1169.4 ± 12
313.17 K, 2500 kPa | 1170.3 ± 12
313.17 K, 5000 kPa | 1172 ± 12
313.17 K, 10000 kPa | 1175.4 ± 12
313.17 K, 15000 kPa | 1179.1 ± 12
313.17 K, 20000 kPa | 1182.6 ± 12
313.17 K, 25000 kPa | 1186 ± 12
323.14 K, 15000 kPa | 1171.1 ± 12
323.15 K, 500 kPa | 1161 ± 12
323.15 K, 1000 kPa | 1161.1 ± 12
323.15 K, 5000 kPa | 1163.8 ± 12
323.15 K, 10000 kPa | 1167.3 ± 12
323.15 K, 20000 kPa | 1174.7 ± 12
323.16 K, 100 kPa | 1160.6 ± 12
323.16 K, 2500 kPa | 1162 ± 12
323.16 K, 25000 kPa | 1178.3 ± 12
333.11 K, 100 kPa | 1152.6 ± 12
333.12 K, 500 kPa | 1152.9 ± 12
333.12 K, 1000 kPa | 1153 ± 12
333.12 K, 2500 kPa | 1154 ± 12
333.12 K, 10000 kPa | 1159.5 ± 12
333.13 K, 5000 kPa | 1156.8 ± 12
333.13 K, 15000 kPa | 1163.4 ± 12
333.13 K, 25000 kPa | 1171 ± 12
333.14 K, 20000 kPa | 1167.2 ± 12
343.07 K, 500 kPa | 1145 ± 12
343.07 K, 1000 kPa | 1145.1 ± 12
343.08 K, 2500 kPa | 1146.1 ± 12
343.08 K, 10000 kPa | 1151.9 ± 12
343.08 K, 15000 kPa | 1156 ± 12
343.09 K, 5000 kPa | 1148.1 ± 12
343.09 K, 25000 kPa | 1163.7 ± 12
343.1 K, 20000 kPa | 1159.9 ± 12
343.13 K, 100 kPa | 1144.5 ± 11
353.2 K, 100 kPa | 1136.5 ± 11
353.22 K, 500 kPa | 1137 ± 11
353.22 K, 2500 kPa | 1138.2 ± 11
353.22 K, 5000 kPa | 1140.2 ± 11
353.23 K, 1000 kPa | 1137.1 ± 11
353.23 K, 10000 kPa | 1144.2 ± 11
353.23 K, 15000 kPa | 1148.4 ± 12
353.25 K, 20000 kPa | 1152.5 ± 12
353.25 K, 25000 kPa | 1156.4 ± 12
